One compound from patent US5886046A, “Dicarbonyl-containing compounds” (priority 1996, dated 1999) can be followed below.

One test relates to HIV-1. The experiment in a line: CIC95 (cell culture assay of Thompson, not further described). The class given is cell-based. The text has this: (§1) The biological activity compound (4) was compared with the known enzyme inhibitor (1) N-(2(R)-Hydroxy-1(S)-indonyl)-5(S)-[tert-butyloxycarbonyl)amino]-4(S)-hydroxy-6-(4-hydroxyphenyl)-2-(R) -[(4-hydroxyphenyl)methyl]hexanamide. See, e.g., Thompson, W. J. et al., J. Med. Chem. 1992, 35, 1685) according to methods recited in the Thompson, supra. and Heimbach, J. C. et al., Biochem. Biophys. Res. Commun. 1989, 164, 955-960.

A further test has as its target HIV-1 protease (Human immunodeficiency virus type 1 group M subtype B, UniProt P12497). The experiment in a line: biochemical.
Text: as §1

Compound `CC(=O)C(=O)COc1ccc(C[C@H](C[C@H](O)[C@H](Cc2ccccc2)NC(=O)OC(C)(C)C)C(=O)N[C@H]2c3ccccc3C[C@H]2O)cc1` [Compound 4] registered an IC95 with HIV-1 (Human immunodeficiency virus 1) of under 6 nM. Besides, in the test with HIV-1 (ratio of CIC95 to IC50), the CIC95/IC50 was under 80. For the same compound, the IC50 on HIV-1 protease was 0.075 nM.
